Where two headings read alike, the source gives them in different places.

The nature of data set [1]: In vivo pharmacokinetic study in rat. The note with it: for clearance / half-life / Vd / bioavailability: Sprague-Dawley (SD), blood; for clearance / half-life / Vd: iv; for Vd: read-out: Vss; for bioavailability: po. As to the method: In a rat (SD, male, non-fasted) non-crossover cassette (n=2) PK study, Example 1 was dosed at 0.5 mg/kg (DMA: […]=5:95, solution) with another compound via i.v. administration (N=3) and 2 mg/kg (0.5% o Na CMC+0.50% Tween80, suspension) with another compound via oral gauge (p.o.) (N=3).
In a rat (SD, male and female, non-fasted) non-crossover cassette (n=4) PK study, Example 6 was dosed at 0.2 mg/kg (DMA: […]=5:95, solution) with other 3 compounds via i.v. administration (N=2 per sex) and 2 mg/kg (0.5% o Na CMC+0.50% Tween80, suspension) with other 3 compounds via oral gauge (p.o.) (N=2 per sex).
In a rat (SD, male and female, non-fasted) non-crossover PK study, Example 11 was dosed at 1 mg/kg (DMA: 20% HPBCD=5:95, solution) via i.v. administration (N=3 per sex) and 3 mg/kg (0.5% Na CMC+0.5% Tween80, suspension) via oral gauge (p.o.) (N=3 per sex).

The nature of data set [2]: In vivo brain exposure study in mouse. The note with it: po, mouse CD-1 male, 10 mg/kg p.o. As to the method: In a mouse (CD-1, male) brain exposure cassette study, Examples 2 and 6 were dosed together at 10 mg/kg each (0.5% Na CMC+0.5% Tween80, solution) via oral gauge (p.o.). At 3 time points (N=3), 2h, 4h and 8h, plasma and brain samples were analyzed for average drug concentrations.
In a mouse (CD-1, male) brain exposure study, Examples 11 was dosed at 10 mg/kg each (0.5% Na CMC+0.5% Tween80, solution) via oral gauge (p.o.). At 3 time points (N=3), 1 h, 2h and 4h, plasma and brain samples were analyzed for average drug concentrations.

The subject of data set [3] is Symmetric Di-Methyl Arginine (sDMA) marks in U-87 MG cells. Briefly: sDMA Western blot / In Cell Western in U-87 MG cells. It is filed as cell-based. Conditions: Homo sapiens, 72 h, 3 days, read-out: sDMA_U87 IC50. As to the method:
Compound titration and cell culture: Compounds were dissolved in DMSO to make 10 mM stock and 3-fold series dilutions were further conducted to make working stocks top at 1 mM. Granta-519 cells were maintained in PRMI 1640 (Corning Cellgro, Catalog #: 10-040-CV) supplemented with 10% v/v FBS (GE Healthcare, Catalog #: SH30910.03) and U-87 MG cells were maintained in DMEM (Corning Cellgro, Catalog #: 10-013-CV) with 10% FBS and 2 mM Glutamin (Corning Cellgro, Catalog #25005CV).
To determine enzyme inhibition IC50 values in Granta-519 and U-87 MG cells using Western Blot analysis. One day before experiment, Granta-519 cells were passaged to a density of 0.5×10^6 cells/ml. U-87 MG cells were trypsinized and 4×10^5 cells were seeded into 6-well plates and allow to grow overnight. The next day, Granta-519 cells were spun down at 1,500 rpm for 4 min, resuspend in fresh medium at 0.5×10^6 cells/ml and 3 mL of culture (1.5×10^6 cells) were seeded into 6 well plate. Eight-point, 3-fold serial dilutions of compound working stocks were added to cells (3 ul, 1:1,000 dilution, DMSO concentration was 0.1%; final top concentration at 1 uM) and incubated for 3 days. Cells incubated with DMSO was used as a vehicle control.
Cells were harvested 3 days later, resuspended in 15 uL PBS, lysed in 4% SDS, and homogenized by passing through homogenizer column (Omega Biotek, Catalog #: HCR003). Total protein concentrations were determined by BCA assay (ThermoFisher Scientific, Catalog #: 23225). Lysates were mixed with 5× Laemmli buffer and boiled for 5 min. Forty ug of total protein was separated on SDS-PAGE gels (Bio-Rad, catalog #: 4568083, 4568043), transferred to PVDF membrane, blocked with 5% dry milk (Bio-Rad, Catalog #: 1706404) in TBS with 0.1% v/v Tween 20 (TBST) for 1 hour at room temperature (RT), and incubated with primary antibodies (sDMA: Cell signaling, Catalog #: 13222, 1:3,000; β-Actin: sigma, Catalog #: 1:5,000) in 5% dry milk in TBST at 4° C. overnight. The next day, membranes were washed with TBST, 5×5 min, and incubated with HRP conjugated seconded antibody (GE Healthcare; Catalog #: NA934-1ML, NA931-1ML; 1:5,000) for 2 hours at RT, followed by 5×5 min washes with TBST, and incubation with ECL substrates (Bio-Rad, Catalog #: 1705061, 1705062). Chemiluminescent signal was captured with Fluochem HD2 imager (Proteinsimple). SmD3me2s bands were quantified by ImageJ. Signals were normalized to β-Actin and DMSO control. IC50 values were calculated using Graphpad Prism ([Inhibitor]vs. normalized response−Variable slope).
U87-MG cells were trypsinized one day before the experiment, seeded into a 384-well plate at 2500 cells/well using a Multidrop Combi Dispenser (ThermoFisher) and allowed to grow overnight. The next day (day 0), a series of 9-point, 3-fold serial dilutions of compounds were prepared and dispensed into wells from a 1 mM stock solution using a TECAN digital dispenser (D300e) and the DMSO % concentration was normalized to 0.1%. Three days later, media was removed, and cells were processed as described above.
To determine IC50 values, the ratio for each well was calculated (sDMA 800 nm value/DRAQ5 700 nm value). Each plate included 28 negative control wells (DMSO only, minimum inhibition) and 18 positive control wells for maximum inhibition (treated with 3 uM of a reference compounds, background wells). The average ratios of minimum and maximum inhibition controls were calculated and used to determine the percentage of sDMA, relative to DMSO, for each well in the plate.
These procedures generated the sDMA data in Table 7.
For orientation: A western blot detects proteins with antibodies after separation by electrophoresis.

Where [4] appears, read: rat SD male, i.v. 0.5 mg/kg, cassette.
[5] abbreviates: cassette, brain, read-out: Brain-2 h.
Setting [6] is: cassette, brain, read-out: Brain-4 h.
[7] abbreviates: cassette, brain, read-out: Brain-8 h.
Where [8] appears, read: cassette, plasma, read-out: Plasma-2 h.
The mark [9] stands for this setting: cassette, plasma, read-out: Plasma-4 h.
The mark [10] stands for this setting: cassette, plasma, read-out: Plasma-8 h.
Setting [11] is: rat SD female, i.v. 0.2 mg/kg, cassette.
Where [12] appears, read: rat SD male, i.v. 0.2 mg/kg, cassette.
[13] abbreviates: rat SD female, p.o. 2 mg/kg, cassette (n=4).
The mark [14] stands for this setting: rat SD male, p.o. 2 mg/kg, cassette (n=4).

One may read the clearance as a measure of how efficiently the substance is removed, as volume per time. Low readings indicate inefficient removal, high ones efficient removal. For orientation: half-life means the time needed for the level to fall by half in the phase considered. A low value points to rapid decline. Turning to `C[C@@](O)(c1ccc2c(c1)CC2)[C@H]1O[C@@H](n2ccc3c(N)ncnc32)[C@H](O)[C@@H]1O` [Example 1, (2R,3R,4S,5S)-2-(4-amino-7H-pyrrolo[2,3-d]pyrimidin-7-yl)-5-((R)-1-(bicyclo[4.2.0]octa-1(6),2,4-trien-3-yl)-1-hydroxyethyl)tetrahydrofuran-3,4-diol], in data set [1] (setting [4]), the clearance came out at 56.2 mL/min/kg, the half-life is 0.35 h and the Vd came to 1.36 L/kg. The “dose normalized AUC” value in data set [1] (rat SD male, p.o. 2 mg/kg, cassette) is 145 ng·kg·h/mL/mg.
As to `Nc1ncnc2c1ccn2[C@@H]1O[C@H]([C@H](O)c2ccc3c(c2)CC3)[C@@H](O)[C@H]1O` [Example 2, (2R,3R,4S,5R)-2-(4-amino-7H-pyrrolo[2,3-d]pyrimidin-7-yl)-5-((R)-bicyclo[4.2.0]octa-1(6),2,4-trien-3-yl(hydroxy)methyl)tetrahydrofuran-3,4-diol], the values for the concentration at 2 h in data set [2] (setting [5]) and in data set [2] (setting [8]) were 244 ng/g and 1610 ng/mL, respectively. For the same compound, the concentration at 4 h in data set [2] (setting [6]) turned out to be 174 ng/g; in data set [2] (setting [9]) it was 802 ng/mL. Further, the concentration at 8 h in data set [2] (setting [7]) worked out at 76.2 ng/g; in data set [2] (setting [10]) it was 178 ng/mL.
What is called IC50 is the point on the concentration scale where inhibition reaches its midpoint. One may read the bioavailability as dose-corrected exposure relative to a reference, in per cent. Low values mean little systemic uptake, high ones much systemic uptake. Turning to `Nc1ncnc2c1c(F)cn2[C@@H]1O[C@H]([C@H](O)c2ccc3c(c2)CC3)[C@@H](O)[C@H]1O` [Example 6, (2R,3R,4S,5R)-2-(4-amino-5-fluoro-7H-pyrrolo[2,3-d]pyrimidin-7-yl)-5-((R)-bicyclo[4.2.0]octa-1(6),2,4-trien-3-yl(hydroxy)methyl)tetrahydrofuran-3,4-diol], the IC50 in data set [3] stood at 94 nM. Further, the values for the clearance in data set [1] (setting [11]) and in data set [1] (setting [12]) were 21.6 mL/min/kg and 59.2 mL/min/kg, respectively. For the same compound, the half-life in data set [1] (setting [11]) was 1.69 h; in data set [1] (setting [12]), 0.46 h. The figures for the Vd in data set [1] (setting [11]) and in data set [1] (setting [12]) were 1.91 L/kg and 1.81 L/kg, respectively. Moreover, the bioavailability is over 100% in data set [1] (setting [13]) and 51.1% in data set [1] (setting [14]). Moreover, the “dose normalized AUC” value in data set [1] (setting [13]) came out at 1143 ng·kg·h/mL/mg; in data set [1] (setting [14]) it was 144 ng·kg·h/mL/mg. The concentration at 2 h in data set [2] (setting [5]) turned out to be 183 ng/g; in data set [2] (setting [8]), 380 ng/mL. The concentration at 4 h in data set [2] (setting [6]) is 45.9 ng/g; in data set [2] (setting [9]), 138 ng/mL. Further, the concentration at 8 h in data set [2] (setting [7]) stood at 50.5 ng/g; in data set [2] (setting [10]), 33.7 ng/mL.
`Cc1ncnc2c1ccn2[C@@H]1O[C@H]([C@H](O)c2ccc3c(c2)CC3)[C@@H](O)[C@H]1O` [Example 11, (2R,3S,4R,5R)-2-((R)-bicyclo[4.2.0]octa-1(6),2,4-trien-3-yl(hydroxy)methyl)-5-(4-methyl-7H-pyrrolo[2,3-d]pyrimidin-7-yl)tetrahydrofuran-3,4-diol]: the IC50 in data set [3] worked out at 53 nM. Besides, the clearance in data set [1] (rat SD female, i.v. 1 mg/kg) is 37.2 mL/min/kg; in data set [1] (rat SD male, i.v. 1 mg/kg), 77.5 mL/min/kg. Also, the half-life was 1.84 h in data set [1] (rat SD female, i.v. 1 mg/kg) and 1.06 h in data set [1] (rat SD male, i.v. 1 mg/kg). The Vd in data set [1] (rat SD female, i.v. 1 mg/kg) came to 2.71 L/kg; in data set [1] (rat SD male, i.v. 1 mg/kg) it was 2.85 L/kg. Also, the bioavailability in data set [1] (rat SD female, p.o. 3 mg/kg) is 97%; in data set [1] (rat SD male, p.o. 3 mg/kg), 13%. Also, the “dose normalized AUC” value in data set [1] (rat SD female, p.o. 3 mg/kg) was 434 ng·kg·h/mL/mg; in data set [1] (rat SD male, p.o. 3 mg/kg), 33 ng·kg·h/mL/mg. Moreover, the concentration at 1 h was determined as 188 ng/g in data set [2] (brain, read-out: Brain-1 h) and 207 ng/mL in data set [2] (plasma, read-out: Plasma-1 h). Further, the concentration at 2 h was 85.7 ng/g in data set [2] (brain, read-out: Brain-2 h) and 148 ng/mL in data set [2] (plasma, read-out: Plasma-2 h). The concentration at 4 h stood at 50.2 ng/g in data set [2] (brain, read-out: Brain-4 h) and 53.6 ng/mL in data set [2] (plasma, read-out: Plasma-4 h).

The values are drawn from patent publication US11524962B2, “Substituted pyrrolo[2,3-d]pyrimidines as inhibitors of protein arginine methyl transferase 5 (PRMT5)” (PRELUDE THERAPEUTICS, INCORPORATED, priority 2017, dated 2022).
